Columns and labels:
Type in all cases: in vivo, mice (C57BL/6)
[1] = tested on: model animals with acute colitis induced by TNBS; test: Acute colitis induced by TNBS in mice, secondary experiment (extract-based and fraction-based): weight change, colon length, macroscopic score; details: TNBS-treated mice, percentage to normal group
Experimental: All the mice were bred under the controlled environmental conditions of 50±10% of humidity at a temperature of 20° C. to 22° C., and the lighting was provided by repeatedly turning on for 12 hours followed by turning off for 12 hours. A feed for a standard experiment (Samyang, Korea) was used as a feed, and ad libitum access to water was allowed. In all experiments, each group consisted of 6 mice. […] Meanwhile, for the normal group, 0.1 mL of normal saline solution was orally administered. Subsequently, from the following day, the sample dissolved in normal saline solution was orally administered at a predetermined volume once daily for 3 days. On the following day after completing the sample administration, the experimental animals were suffocated to death with carbon dioxide, and the colon from the appendix to the region immediately before the anus was removed from the colon region. In this case, the experiments, where an ethanol extract of Anemarrhena asphodeloides Bunge, an ethanol extract of Coptis chinensis, a combined extract of the ethanol extract of Anemarrhena asphodeloides Bunge and the ethanol extract of Coptis chinensis, and a combined extract of a water extract of Anemarrhena asphodeloides Bunge and a water extract of Coptis chinensis were used as drug samples (hereinafter, “extract-based experiment”), and the experiments, where a butanol-soluble fraction of the ethanol extract of Anemarrhena asphodeloides Bunge, a butanol-soluble fraction of the ethanol extract of Coptis chinensis, and a combined extract of the butanol-soluble fraction of the ethanol extract of Anemarrhena asphodeloides Bunge and the butanol-soluble fraction of the ethanol extract of Coptis chinensis were used as drug samples (hereinafter, “fraction-based experiment”) were separately performed with time intervals, respectively. Considering the characteristics of animal experiments, it is reasonable that the effects of the drug samples on preventing or treating colitis be evaluated within each of the experiments and that the normal group supplied with saline solution instead of a specific drug sample, for the experimental animals not treated with TNBS, be used as a standard. The sample administration to the model animals with colitis induced by TNBS was stopped, and on the following day, the weight of the experimental animals was measured were and then compared with their initial weight to calculate the change in the amount of weight. The scores on the removed colons were estimated by observing the appearances and the length of the colons according to the criteria (Hollenbach et al., the criteria on the levels of colon in 2005) listed in Table 3. In this case, as a positive control group, the group administered with Mesalazine® (Sigma) was used. Additionally, a portion of the content in the colon was collected to analyze the intestinal microorganisms, and then stored in a freezer maintained at −80° C. From the tissues of colon, the content in the colon was completely removed and then the tissues of colon were washed with normal saline solution.

IL-10 = IL-10 expression in colon tissue (ELISA), TNBS acute colitis, primary experiment; details: TNBS-treated mice, 10 mg/kg orally once daily for 3 days, percentage to normal group
Experimental: (§1) Among the experimental groups, one group was set as a normal group, and the experimental animals in other groups were induced with acute colitis by 2,4,6-trinitrobenzenesulfonic acid (TNBS). In detail, after lightly anesthetizing the experimental animals with ether, 0.1 mL of the solution prepared by mixing 2.5 g of 2,4,6-Trinitrobenzene sulfonic acid (NBS) solution with 50% ethanol was injected into the colon through the anus using a syringe having 1 mL volume and an oval point, respectively; the syringe was vertically picked up, and then, maintained for 30 seconds to induce inflammation. Meanwhile, for the normal group, 0.1 mL of normal saline solution was orally administered. Subsequently, from the following day, the sample dissolved in normal saline solution was orally administered at a predetermined volume once daily for 3 days. […] In this case, as a drug sample, the experiments using the butanol-soluble fraction of the Anemarrhena asphodeloides Bunge extract, mangiferin, and a combined extract were separately performed with time intervals, respectively, and the effects of the drug samples on preventing or treating colitis were reasonably analyzed based on the group supplied with normal saline solution instead of a specific drug in the model animals not treated with TNBS, for each of the experiments. […]

Myeloperoxidase (MPO) [2] = test: MPO activity in colon tissue (ELISA kit), TNBS acute colitis, primary experiment; details: TNBS-treated mice, 10 mg/kg orally once daily for 3 days, percentage to normal group
Experimental: Among the experimental groups, one group was set as a normal group, and the experimental animals in other groups were induced with acute colitis by 2,4,6-trinitrobenzenesulfonic acid (TNBS). In detail, after lightly anesthetizing the experimental animals with ether, 0.1 mL of the solution prepared by mixing 2.5 g of 2,4,6-Trinitrobenzene sulfonic acid (NBS) solution with 50% ethanol was injected into the colon through the anus using a syringe having 1 mL volume and an oval point, respectively; the syringe was vertically picked up, and then, maintained for 30 seconds to induce inflammation. Meanwhile, for the normal group, 0.1 mL of normal saline solution was orally administered. […] In this case, as a drug sample, the experiments using the butanol-soluble fraction of the Anemarrhena asphodeloides Bunge extract, mangiferin, and a combined extract were separately performed with time intervals, respectively, and the effects of the drug samples on preventing or treating colitis were reasonably analyzed based on the group supplied with normal saline solution instead of a specific drug in the model animals not treated with TNBS, for each of the experiments.
100 mg of colon tissues were homogenized after adding 200 μL of lysis buffer thereto. […] Subsequently, 100 μL of a stop solution was added to terminate the reaction, and the absorbance was measured at 450 nm using an ELISA reader.

IL-1β = IL-1β expression in colon tissue (ELISA), TNBS acute colitis, primary experiment; details: TNBS-treated mice, 10 mg/kg orally once daily for 3 days, percentage to normal group
Experimental: as §1

IL-6 = IL-6 expression in colon tissue (ELISA), TNBS acute colitis, primary experiment; details: TNBS-treated mice, 10 mg/kg orally once daily for 3 days, percentage to normal group
Experimental: as §1

[3] = tested on: model animals with acute colitis induced by TNBS; test: Acute colitis induced by TNBS in mice, primary experiment: weight change, colon appearance score, colon length; details: TNBS-treated mice, 10 mg/kg orally once daily for 3 days, percentage to normal group (saline, no TNBS)
Experimental: All the mice were bred under the controlled environmental conditions of 50±10% of humidity at a temperature of 20° C. to 22° C., and the lighting was provided by repeatedly turning on for 12 hours followed by turning off for 12 hours. A feed for a standard experiment (Samyang, Korea) was used as a feed, and ad libitum access to water was allowed. In all experiments, each group consisted of 6 mice. […] Meanwhile, for the normal group, 0.1 mL of normal saline solution was orally administered. Subsequently, from the following day, the sample dissolved in normal saline solution was orally administered at a predetermined volume once daily for 3 days. On the following day after completing the sample administration, the experimental animals were suffocated to death with carbon dioxide, and the colon from the appendix to the region immediately before the anus was removed from the colon region. In this case, as a drug sample, the experiments using the butanol-soluble fraction of the Anemarrhena asphodeloides Bunge extract, mangiferin, and a combined extract were separately performed with time intervals, respectively, and the effects of the drug samples on preventing or treating colitis were reasonably analyzed based on the group supplied with normal saline solution instead of a specific drug in the model animals not treated with TNBS, for each of the experiments. The sample administration to the model animals with colitis induced by TNBS was stopped, and on the following day, the weight of the experimental animals was measured, and the measured weight was compared with the initial weight to calculate the amount of change in weight. The scores about the removed colons were estimated by observing the appearances and the length of the colons according to the following criteria (Hollenbach, et al., the criteria about the colitis level in 2005) as listed in Table 1. In this case, as a positive control group, the group administered with Mesalazine® (Sigma) was used. […]

Myeloperoxidase (MPO) [4] = test: MPO activity in colon tissue (ELISA kit), TNBS acute colitis, secondary experiment; details: TNBS-treated mice, percentage to normal group
Experimental: Among the experimental groups, one group was set as a normal group, and the experimental animals in other groups were induced with acute colitis by 2,4,6-trinitrobenzenesulfonic acid (TNBS). In detail, after lightly anesthetizing the experimental animals with ether, 0.1 mL of the solution prepared by mixing 2.5 g of 2,4,6-Trinitrobenzene sulfonic acid (NBS) solution with 50% ethanol was injected into the colon through the anus using a syringe having 1 mL volume and an oval point, respectively; the syringe was vertically picked up, and then, maintained for 30 seconds to induce inflammation. Meanwhile, for the normal group, 0.1 mL of normal saline solution was orally administered. Subsequently, from the following day, the sample dissolved in normal saline solution was orally administered at a predetermined volume once daily for 3 days. On the following day after completing the sample administration, the experimental animals were suffocated to death with carbon dioxide, and the colon from the appendix to the region immediately before the anus was removed from the colon region. In this case, the experiments, where an ethanol extract of Anemarrhena asphodeloides Bunge, an ethanol extract of Coptis chinensis, a combined extract of the ethanol extract of Anemarrhena asphodeloides Bunge and the ethanol extract of Coptis chinensis, and a combined extract of a water extract of Anemarrhena asphodeloides Bunge and a water extract of Coptis chinensis were used as drug samples (hereinafter, “extract-based experiment”), and the experiments, where a butanol-soluble fraction of the ethanol extract of Anemarrhena asphodeloides Bunge, a butanol-soluble fraction of the ethanol extract of Coptis chinensis, and a combined extract of the butanol-soluble fraction of the ethanol extract of Anemarrhena asphodeloides Bunge and the butanol-soluble fraction of the ethanol extract of Coptis chinensis were used as drug samples (hereinafter, “fraction-based experiment”) were separately performed with time intervals, respectively. Considering the characteristics of animal experiments, it is reasonable that the effects of the drug samples on preventing or treating colitis be evaluated within each of the experiments and that the normal group supplied with saline solution instead of a specific drug sample, for the experimental animals not treated with TNBS, be used as a standard.
100 mg of colon tissues were homogenized after adding 200 μL of lysis buffer thereto. The homogenized colon tissues were centrifuged at 4° C. at a rate of 13000 rpm for 15 minutes, the supernatant therefrom was recovered, and the MPO activity was measured using a mouse MPO assay ELISA kit (Hbt HK210, USA). 100 μL of the supernatant was added into a 96-well plate and reacted at room temperature for 1 hour. Upon completion of the reaction, the plate was emptied by overturning, repeatedly washed three times with 200 μL of washing buffer, added with 100 μL of diluted tracer, and then the reaction was allowed to perform at room temperature for 1 hour. Upon completion of the reaction, the plate was emptied by overturning, and each well of the plate was washed using 200 μL of washing buffer. After repeatedly performing the washing process three times using 200 μL of washing buffer, 100 μL of diluted streptavidin-peroxidase conjugate was added thereto, and the reaction was allowed to perform at room temperature for 1 hour. Upon completion of the reaction, the plate was emptied by overturning, and each well of the plate was washed with 200 μL of washing buffer. After repeatedly washing three times using 200 μL of washing buffer, 100 μL of TMB substrate solution was added thereto, the plate was wrapped with an aluminum foil to block out the light, and the reaction was performed at room temperature for 30 minutes. Subsequently, 100 μL of a stop solution was added to terminate the reaction, and the absorbance was measured at 450 nm using an ELISA reader.

TNF-α = TNF-α expression in colon tissue (ELISA), TNBS acute colitis, primary experiment; details: TNBS-treated mice, 10 mg/kg orally once daily for 3 days, percentage to normal group
Experimental: as §1

[5] = extract-based experiment, 10 mg/kg orally once daily for 3 days
[6] = extract-based experiment, 20 mg/kg orally once daily for 3 days
[7] = extract-based experiment, 50 mg/kg orally once daily for 3 days
[8] = fraction-based experiment, 10 mg/kg orally once daily for 3 days
[9] = fraction-based experiment, 20 mg/kg orally once daily for 3 days
[10] = fraction-based experiment, 50 mg/kg orally once daily for 3 days

Nc1ccc(O)c(C(=O)O)c1 [Mesalazine ®, Mesalazine]
Body weight [1, 5]: 59.46% | Colon length [1, 5]: 89.06% | Macroscopic score [1, 5]: 420% | Body weight [1, 6]: 78.38% | Colon length [1, 6]: 90.63% | Macroscopic score [1, 6]: 420% | Body weight [1, 7]: 75.68% | Colon length [1, 7]: 90.63% | Macroscopic score [1, 7]: 450% | Body weight [1, 8]: 59.46% | Colon length [1, 8]: 90.48% | Macroscopic score [1, 8]: 500% | Body weight [1, 9]: 78.38% | Colon length [1, 9]: 92.06% | Macroscopic score [1, 9]: 500% | Body weight [1, 10]: 75.68% | Colon length [1, 10]: 92.06% | Macroscopic score [1, 10]: 600% | IL-10 (IL-10): 53.1% | MPO activity (Myeloperoxidase (MPO) [2]): 1111.6% | IL-1β (IL-1β): 618.4% | IL-6 (IL-6): 190.0% | Body weight [3]: 93.2% | Colon length [3]: 89.9% | Macroscopic score [3]: 550.5% | MPO activity (Myeloperoxidase (MPO) [4]; [5]): 360% | MPO activity (Myeloperoxidase (MPO) [4]; [6]): 360% | MPO activity (Myeloperoxidase (MPO) [4]; [7]): 390% | MPO activity (Myeloperoxidase (MPO) [4]; [8]): 300% | MPO activity (Myeloperoxidase (MPO) [4]; [9]): 300% | MPO activity (Myeloperoxidase (MPO) [4]; [10]): 317% | TNF-α (TNF-α): 304.1%

Reference: patent US10751381B2, “Composition for preventing, relieving or treating colitis, containing complex extracts” (UNIVERSITY-INDUSTRY COOPERATION GROUP OF KYUNG HEE …, priority 2013, dated 2020)
